Peptide text beside a SMILES is read from it. * marks the point of attachment. 5FAM = O=C1OC2(c3ccc(O)cc3Oc3cc(O)ccc32)c2ccc(C(=O)*)cc21; Dabcyl = CN(C)c1ccc(N=Nc2ccc(C(=O)*)cc2)cc1
Test system: EBC-1 human lung squamous carcinoma cells
Test: Cellular uptake by flow cytometry
Format: cell-based
Settings: 90 min, 37 °C, trypsinization; for cellular uptake (in words) / cellular uptake relative to the control octaarginine (Cf-Arg8): 5 µM peptide, serum-free medium; for cellular uptake (in words): compared with Cf-Arg8; for cellular uptake relative to the control octaarginine (Cf-Arg8): flow cytometry fluorescence intensity normalized to Cf-Arg8
Description: For the examination of the internalization of the peptides, 10^5 cultured EBC-1 cells per well were plated on 24-well plates. The cells were incubated for 24 h at 37 °C then they were treated with peptides at different concentrations for 90 min in a serum-free medium. In the negative control the cells were treated with a serum-free medium. After the incubation, the peptide solutions were removed and 100 µL trypsin (0.25%) was added for 5–10 min to remove membrane bound peptides and detach the adherent cells from the plates. The activity of trypsin was terminated by the addition of 900 µL HPMI buffer (glucose, NaHCO3, NaCl, HEPES, KCl, MgCl2, CaCl2, Na2HPO4∙2H2O) containing 10% fetal bovine serum, and the cells were transferred from the plates to FACS-tubes for measurement. The cells were centrifuged at 216× g at 4 °C for 5 min and the supernatant was removed. The cells were resuspended in 250 µL HPMI, and the fluorescence intensity of the cells was quantified using flow cytometry (BD LSR II, BD Bioscience, San Jose, CA, USA). The data were analyzed with FACSDiva 5.0 software (BD Bioscience, San Jose, CA, USA).
The cellular uptake of the peptides was determined using flow cytometry on EBC-1 human lung squamous carcinoma cells. The peptides were added to the cells at a concentration of 5 µM for 90 min at 37 °C. Selected constructs were used to study the concentration dependence at 0.125, 1.25 and 2.5 µM with 90 min treatment times. When evaluating the measurements data, the fluorescence of cells treated with peptides was corrected with the autofluorescence of cells without peptide treatment. The toxicity of the peptide conjugates was determined by comparing the live and dead cells ratio during the flow cytometry analysis.

SMILES | cellular uptake (in words) (EBC-1 cells, flow cytometry) | cellular uptake relative to the control octaarginine (Cf-Arg8) (EBC-1 cells) | further results
CN(C)c1ccc(N=Nc2ccc(C(=O)NCCCC[C@H](NC(=O)[C@H](CCCNC(=N)N)NC(=O)[C@H](CCCNC(=N)N)NC(=O)[C@H](CCCNC(=N)N)NC(=O)[C@H](CCCNC(=N)N)NC(=O)[C@H](CCCNC(=N)N)NC(=O)[C@H](CCCNC(=N)N)NC(=O)c3ccc4c(c3)C(=O)OC43c4ccc(O)cc4Oc4cc(O)ccc43)C(N)=O)cc2)cc1 [Cf-(Arg)6-Lys(Dabcyl)] | surprisingly poor cellular uptake | – | cellular uptake compared with octaarginine at low concentrations (in words) (EBC-1 cells, 0.125, 1.25 and 2.5 µM peptide, flow cytometry): significantly decreased uptake
CN(C)c1ccc(N=Nc2ccc(C(=O)N[C@@H](CCCNC(=N)N)C(=O)N[C@@H](CCCNC(=N)N)C(=O)N[C@@H](CCCNC(=N)N)C(=O)N[C@@H](CCCNC(=N)N)C(=O)N[C@@H](CCCNC(=N)N)C(=O)N[C@@H](CCCNC(=N)N)C(=O)N[C@@H](CCCCNC(=O)c3ccc4c(c3)C(=O)OC43c4ccc(O)cc4Oc4cc(O)ccc43)C(N)=O)cc2)cc1 [Dabcyl-(Arg)6-Lys(Cf)] | – | 6.5 times | –
CN(C)c1ccc(N=Nc2ccc(C(=O)N[C@@H](CCCNC(=N)N)C(=O)N[C@@H](CCCNC(=N)N)C(=O)N[C@@H](CCCNC(=N)N)C(=O)N[C@@H](CCCNC(=N)N)C(=O)N[C@@H](CCCNC(=N)N)C(=O)N[C@@H](CCCNC(=N)N)C(=O)N[C@@H](CCCNC(=N)N)C(=O)N[C@@H](CCCCNC(=O)c3ccc4c(c3)C(=O)OC43c4ccc(O)cc4Oc4cc(O)ccc43)C(N)=O)cc2)cc1 [Dabcyl-(Arg)7-Lys(Cf)] | – | 6 times | –
CN(C)c1ccc(N=Nc2ccc(C(=O)N[C@@H](CCCNC(=N)N)C(=O)N[C@@H](CCCNC(=N)N)C(=O)N[C@@H](CCCNC(=N)N)C(=O)N[C@@H](CCCNC(=N)N)C(=O)N[C@@H](CCCCNC(=O)c3ccc4c(c3)C(=O)OC43c4ccc(O)cc4Oc4cc(O)ccc43)C(N)=O)cc2)cc1 [Dabcyl-(Arg)4-Lys(Cf)] (Dabcyl-RRRRK(5FAM)-NH2) | lower cellular uptake than octaarginine | – | –
CN(C)c1ccc(N=Nc2ccc(C(=O)NCc3ccc(C(=O)N[C@@H](CCCNC(=N)N)C(=O)N[C@@H](CCCNC(=N)N)C(=O)N[C@@H](CCCNC(=N)N)C(=O)N[C@@H](CCCNC(=N)N)C(=O)N[C@@H](CCCNC(=N)N)C(=O)N[C@@H](CCCNC(=N)N)C(=O)N[C@@H](CCCNC(=N)N)C(=O)N[C@@H](CCCNC(=N)N)C(=O)N[C@@H](CCCCNC(=O)c4ccc5c(c4)C(=O)OC54c5ccc(O)cc5Oc5cc(O)ccc54)C(N)=O)cc3)cc2)cc1 [Dabcyl-AMBA-(Arg)8-Lys(Cf)] | – | ~ 8 times | cellular uptake relative to Cf-Arg8 (EBC-1 cells, 1.25 µM peptide, flow cytometry): ~ 6 times; cellular uptake relative to octaarginine (EBC-1 cells, 2.5 µM peptide, flow cytometry): 30 times
